# Test results taken from the supplement of paper PMC11061612.
# Tests used:
# Assay in all cases: combination Emax (second highest fraction inhibited in the dose matrix, 72 h); higher = more inhibition; extreme values may be limits of the assay
# [1] = test system: NB14 (Neuroblastoma)
# Method in brief: (§1)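 Bliss excess equals the observed combination effect minus the expected value EA + EB − EA·EB, where EA and EB are the effects of each agent alone. Combination Emax is the second-highest inhibition within the matrix. Inhibition was scaled from CellTiter-Glo 2.0 luminescence, with 0 set by vehicle wells and 1 by blank wells, after 72 hours of two-drug dosing of cells plated in 1536-well plates.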
# [2] = test system: CTB-1 (B-Cell Non-Hodgkin's Lymphoma)
# Method in brief: as §1
# [3] = test system: SH-4 (Melanoma)
# Method in brief: as §1
# [4] = test system: KARPAS-231 (B-Cell Non-Hodgkin's Lymphoma)
# Method in brief: as §1
# [5] = test system: CAPAN-1 (Pancreatic Carcinoma)
# Method in brief: as §1
# [6] = test system: KYSE-410 (Esophageal Squamous Cell Carcinoma)
# Method in brief: as §1
# [7] = test system: EN (Endometrial Carcinoma)
# Method in brief: as §1
# [8] = test system: LB771-HNC (Head and Neck Carcinoma)
# Method in brief: as §1
# [9] = test system: CAL-54 (Kidney Carcinoma)
# Method in brief: as §1
# [10] = test system: SUP-T1 (T-Lymphoblastic Leukemia)
# Method in brief: as §1
# [11] = test system: MDA-MB-468 (Breast Carcinoma)
# Method in brief: as §1
# [12] = test system: UMC-11 (Other Solid Carcinomas)
# Method in brief: as §1
# [13] = test system: NCI-H2795 (Mesothelioma)
# Method in brief: as §1
# [14] = test system: RPMI-6666 (Non-Cancerous)
# Method in brief: as §1
# [15] = test system: SW1271 (Small Cell Lung Carcinoma)
# Method in brief: as §1
# [16] = test system: HDLM-2 (Hodgkin's Lymphoma)
# Method in brief: as §1
# [17] = test system: K5 (Thyroid Gland Carcinoma)
# Method in brief: as §1
# [18] = test system: SU-DHL-6 (B-Cell Non-Hodgkin's Lymphoma)
# Method in brief: as §1
# [19] = test system: HO-1-u-1 (Oral Cavity Carcinoma)
# Method in brief: as §1
# [20] = test system: NCI-H2461 (Mesothelioma)
# Method in brief: as §1
Compound,combination Emax [1],combination Emax [2],combination Emax [3],combination Emax [4],combination Emax [5],combination Emax [6],combination Emax [7],combination Emax [8],combination Emax [9],combination Emax [10],combination Emax [11],combination Emax [12],combination Emax [13],combination Emax [14],combination Emax [15],combination Emax [16],combination Emax [17],combination Emax [18],combination Emax [19],combination Emax [20]
"Cc1c2c(nn1C)CSCc1cc(n(C)n1)CSc1cc(c3ccccc3c1)OCCCc1c(C(=O)O)n(C)c3c-2c(Cl)ccc13 [AZD5991] + CC1(C)CCC(CN2CCN(c3ccc(C(=O)NS(=O)(=O)c4ccc(NCC5CCOCC5)c([N+](=O)[O-])c4)c(Oc4cnc5[nH]ccc5c4)c3)CC2)=C(c2ccc(Cl)cc2)C1 [Venetoclax] (first compound max 1 µM, 7x7, partner max 1 µM)",1,0.17,0.642,1,0.138,0.156,0.608,0.587,0.163,0.304,0.662,0.821,0.793,0.911,0.0732,1,0.183,1,0.358,0.181
"Cc1c2c(nn1C)CSCc1cc(n(C)n1)CSc1cc(c3ccccc3c1)OCCCc1c(C(=O)O)n(C)c3c-2c(Cl)ccc13 [AZD5991] + Cn1cnc2c(F)c(Nc3ccc(Br)cc3Cl)c(C(=O)NOCCO)cc21 [Selumetinib] (first compound max 1 µM, 7x7, partner max 3 µM)",0.76,0.203,0.96,1,0.381,0.331,0.535,0.429,0.28,0.236,0.595,0.348,0.971,0.695,0.448,0.995,0.739,1,0.292,0.359
"Cc1c2c(nn1C)CSCc1cc(n(C)n1)CSc1cc(c3ccccc3c1)OCCCc1c(C(=O)O)n(C)c3c-2c(Cl)ccc13 [AZD5991] + CCN(CCO)CCCOc1ccc2c(Nc3cc(CC(=O)Nc4cccc(F)c4)[nH]n3)ncnc2c1 [AZD2811] (first compound max 1 µM, 7x7, partner max 1 µM)",0.953,0.641,0.336,1,0.206,0.265,0.866,0.591,0.234,0.419,0.738,0.949,0.762,0.797,0.176,0.978,0.298,1,0.657,0.335
"CN(CCO)CC[C@H](CSc1ccccc1)Nc1ccc(S(=O)(=O)NC(=O)c2ccc(N3CCC([C@@H](O)c4ccccc4-c4ccc(Cl)cc4)CC3)cc2)cc1S(=O)(=O)C(F)(F)F [AZD4320] + C[C@@H]1COCCN1C2=NC(=NC(=C2)C3(CC3)[S@](=N)(=O)C)C4=C5C=CNC5=NC=C4 [AZD6738] (first compound max 1 µM, 7x7, partner max 10 µM)",1,0.768,0.409,1,0.724,0.421,0.69,0.6,0.835,0.858,0.842,0.806,0.844,0.989,0.733,0.926,0.702,0.951,0.926,0.838
"CCN(CCO)CCCOc1ccc2c(Nc3cc(CC(=O)Nc4cccc(F)c4)[nH]n3)ncnc2c1 [AZD2811] + C=CCn1c(=O)c2cnc(Nc3ccc(N4CCN(C)CC4)cc3)nc2n1-c1cccc(C(C)(C)O)n1 [AZD1775] (first compound max 1 µM, partner max 1 µM)",1,0.876,0.456,0.993,0.416,0.267,0.558,0.359,0.622,0.839,0.434,0.832,0.441,0.902,0.586,0.746,0.507,0.734,0.54,0.638
